Measured values from patent US20100056482A1, “Calixarene Derivatives as Anticancer Agent” (CENTRE NATIONAL DE LA RECHERCHE SCIENTIFIQUE-CNRS, priority 2006, published 2010).

Legend:
Format in all cases: cell-based
[1] = test system: WBC (leucocytes), non tumoral cells; assay: MTS cell viability, WBC (Example 2); conditions: Leucocyte, MTS on 3rd day
Procedure: (§1) The cells (0.2×10^6/ml) were incubated in a sterile fashion in 100 μl of culture medium (RPMI-1640 supplemented with 10% foetal calf serum, penicillin, streptomycin and amphotericin B) at day DO with variable quantities (from […]) of C4diP, tBuC4diP or C8C4diP at 37° C. and 5% CO2 in a water-saturated atmosphere. On the 3rd day, 20 μl of MTS (non radioactive cell proliferation test (Promega Cat. #: G 3580) are added to the previous 100 μl and then a spectrophotometric reading is carried out at 490 nm after 2 hours of incubation against reagent blanks.
(§2) The cell lines used are as follows: • keratinocytes • WBC: leucocytes • MEWO: human skin melanoma • jurkat: T-cell acute lymphoblastic leukaemia. Cells of the T-lymphocyte type. • HL-60: promyelocytary acute leukaemia. Cells of the promyeloblast type. • Huh7: human hepatoma • Hep-G2: hepatocellular carcinoma.
(§3) The anticancerous effect of C4diP, tBuC4diP and C8C4diP is evaluated by measuring cell viability as a function of variable quantities of these compounds.
(§4) In order to determine the anticancer effect of C4diP, tBuC4diP and C8C4diP on a particular tumour cell culture, the IC50 was calculated.

[2] = test system: keratinocytes, non tumoral cells; assay: MTS cell viability, keratinocytes (Example 2); conditions: Keratinocyte, Keratonicytes, MTS on 3rd day
Procedure: as §1, §2, §3, §4

[3] = test system: Hep-G2 hepatocellular carcinoma cells; assay: MTS cell viability, HepG2 (Example 2); conditions: Homo sapiens; HepG2, MTS on 3rd day
Procedure: as §1, §2, §3, §4

[4] = test system: HL-60 promyelocytary acute leukaemia cells; assay: MTS cell viability, HL-60 (Example 2); conditions: Homo sapiens; HL-60, MTS on 3rd day
Procedure: as §1, §2, §3, §4

[5] = test system: Huh7 human hepatoma cells; assay: MTS cell viability, Huh7 (Example 2); conditions: Huh 7, MTS on 3rd day
Procedure: as §1, §2, §3, §4

[6] = test system: jurkat T-cell acute lymphoblastic leukaemia cells; assay: MTS cell viability, Jurkat (Example 2); conditions: Homo sapiens, MTS on 3rd day
Procedure: as §1, §2, §3, §4

[7] = test system: MEWO human skin melanoma cells; assay: MTS cell viability, Mewo (Example 2); conditions: MTS on 3rd day
Procedure: as §1, §2, §3, §4

[8] = test system: human PBMC (peripheral blood mononuclear cells); assay: MTS cell viability, human PBMC primary culture (Example 3); conditions: primary culture of human PBMC (WBC, healthy lymphocytes), read-out: IC50 (mean concentration for 50% mortality)
Procedure: as §1, with “C4diP” for “C4diP, tBuC4diP or C8C4diP”, “At” for “On”, “4th” for “3rd”, “(non-radioactive” for “(non radioactive”, “is” for “are”
In order to determine the anticancer effect of C4diP on a particular culture of tumour cells, the IC50 was calculated.
The protocol used is that described previously in example 1. When vinblastin is used in the culture medium, it replaces C4diP.

CCCCCCCC(=O)/C(C)=C/C(Cc1cc(C(=O)CCCCCCC)cc(Cc2cc(C(=O)CCCCCCC)cc(Cc3cc(C(=O)CCCCCCC)cc(CC)c3OP(=O)(O)O)c2O)c1OP(=O)(O)O)=C(\C)O [C8C4diP, para-octanoyl-calyx[4]arene dihydroxyphosphonic acid]
IC50 [1]: 95 µM
IC50 [2]: 46 µM
IC50 [3]: 1000 µM
IC50 [4]: 1000 µM
IC50 [5]: 270 µM
IC50 [6]: 113 µM
IC50 [7]: 1000 µM

CC[C@]1(O)C[C@@H]2CN(CCc3c([nH]c4ccccc34)[C@@](C(=O)OC)(c3cc4c(cc3OC)N(C)[C@H]3[C@@](O)(C(=O)OC)[C@H](OC(C)=O)[C@]5(CC)C=CCN6CC[C@]43[C@@H]65)C2)C1 [vinblastin, reference compound]
IC50 [8]: 0.005 µM
